Data taken from article PMC9120017, “Inhibition mechanism of the chloride channel TMEM16A by the pore blocker 1PBC” (Nature Communications, 2022).
Read-outs that look alike come from different tables or passages of the source.

Molecular target: T1, mouse TMEM16A mutant V543A (Mus musculus, UniProt Q8BHY3, V543A)
T1 construct: expressed in transfected cells; host or cells: HEK293T
T1 sequence (Q8BHY3 1-960 V543A): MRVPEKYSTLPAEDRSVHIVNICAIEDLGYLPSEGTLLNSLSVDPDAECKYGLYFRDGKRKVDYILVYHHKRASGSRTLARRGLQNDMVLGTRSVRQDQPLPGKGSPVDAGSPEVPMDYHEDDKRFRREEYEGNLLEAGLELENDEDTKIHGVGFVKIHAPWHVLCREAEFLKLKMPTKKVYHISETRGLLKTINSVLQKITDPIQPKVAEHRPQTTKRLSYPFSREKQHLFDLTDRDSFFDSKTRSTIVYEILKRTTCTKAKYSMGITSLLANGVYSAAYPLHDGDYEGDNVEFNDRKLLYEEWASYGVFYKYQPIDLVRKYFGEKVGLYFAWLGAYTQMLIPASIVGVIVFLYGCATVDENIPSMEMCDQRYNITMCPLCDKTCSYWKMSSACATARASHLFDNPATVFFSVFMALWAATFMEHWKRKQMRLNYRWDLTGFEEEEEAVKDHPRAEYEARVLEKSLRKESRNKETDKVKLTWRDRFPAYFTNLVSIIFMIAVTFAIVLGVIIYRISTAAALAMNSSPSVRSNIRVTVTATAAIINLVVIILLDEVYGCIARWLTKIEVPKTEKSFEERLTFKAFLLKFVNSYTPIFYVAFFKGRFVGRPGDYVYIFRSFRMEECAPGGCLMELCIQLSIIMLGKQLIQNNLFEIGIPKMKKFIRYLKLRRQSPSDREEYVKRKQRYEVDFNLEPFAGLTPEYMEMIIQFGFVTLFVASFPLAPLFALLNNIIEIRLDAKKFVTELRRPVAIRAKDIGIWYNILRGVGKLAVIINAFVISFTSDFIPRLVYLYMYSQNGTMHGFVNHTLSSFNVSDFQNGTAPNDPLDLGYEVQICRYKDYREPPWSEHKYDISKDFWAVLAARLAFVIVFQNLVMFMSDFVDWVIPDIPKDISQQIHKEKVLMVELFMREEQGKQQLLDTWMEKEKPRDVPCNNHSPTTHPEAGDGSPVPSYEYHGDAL
Assay: Inside-out patch recording of 1PBC block, mutant V543A
Assay type: cell-based
Conditions: for remaining activity at 100 µM: 100 µM 1PBC
Description: HEK293T cells (ATCC CRL-1573) were maintained in Dulbecco’s modified Eagle’s medium (DMEM; Sigma-Aldrich) supplemented with 10 U ml^−1 penicillin, 0.1 mg ml^−1 streptomycin (Sigma-Aldrich), 2 mM L-glutamine (Sigma-Aldrich), and 10% FBS (Sigma-Aldrich) in a humidified atmosphere containing 5% CO2 at 37 °C. HEK293S GnTI^− cells (ATCC CRL-3022) were maintained in HyClone HyCell TransFx-H medium (GE Healthcare) supplemented with 10 U ml^−1 penicillin, 0.1 mg ml^−1 streptomycin, 4 mM L-glutamine, 0.15% poloxamer 188 (Sigma-Aldrich), and 1% FBS in an atmosphere containing 5% CO2 at 185 rpm at 37 °C. The ac splice variant of mouse TMEM16A (UniProt ID: Q8BHY3), mouse TMEM16B (UniProt ID: Q8CFW1), or mouse TMEM16F (UniProt ID: Q6P9J9) bearing a 3C cleavage site, a Venus YFP, a Myc tag, and a Streptavidin-binding peptide (SBP) downstream of the open reading frame in a modified pcDNA3.1 vector (Invitrogen) were used as described previously[21],[31]. Mutations were introduced using a modified QuikChange method[58] and were verified by sequencing.
HEK293T cells were transfected with 3–4 μg DNA per 6 cm Petri dish using the calcium phosphate co-precipitation method and were used within 24–96 h after transfection. Recordings were performed on inside-out patches excised from HEK293T cells expressing the construct of interest. Patch pipettes were pulled from borosilicate glass capillaries (O.D. 1.5 mm, I.D. 0.86 mm, Sutter Instrument) and were fire-polished with a microforge (Narishige) before use. Pipette resistance was typically 3–8 MΩ when filled with the recording solutions detailed below. Seal resistance was typically 4 GΩ or higher. Voltage-clamp recordings were made using Axopatch 200B, Digidata 1550, and Clampex 10.7 (Molecular Devices). Analog signals were filtered with the in-built 4-pole Bessel filter at 10 kHz and were digitized at 20 kHz. Solution exchange was achieved using a gravity-fed system through a theta glass pipette mounted on an ultra-fast piezo-driven stepper (Siskiyou). […] All recordings were performed at 20 °C.
A symmetrical ionic condition was used throughout. Stock solution with Ca^2+-EGTA contained 150 mM NaCl, 5.99 mM Ca(OH)2, 5 mM EGTA, and 10 mM HEPES at pH 7.40. Stock solution with EGTA contained 150 mM NaCl, 5 mM EGTA, and 10 mM HEPES at pH 7.40. Free Ca^2+ concentrations were adjusted by mixing the stock solutions at the required ratios calculated using the WEBMAXC program (http://web.stanford.edu/~cpatton/webmaxcS.htm). Patch pipettes were filled with the stock solution with Ca^2+-EGTA, which has a free Ca^2+ concentration of 1 mM. 1PBC (ChemBridge) stock was reconstituted in anhydrous DMSO (Sigma-Aldrich) at 100 mM and stored at −20 °C. Working solutions with 1PBC were prepared by serial dilution. Unless otherwise stated, experiments were performed at a saturating Ca^2+ concentration as shown in Supplementary Table 1 and the primary data were corrected for current rundown as described previously[21],[25].
Concentration-response relations, obtained from the ratio of the I-V plots before and after the application of the blocker, were fitted to the Hill equation,1 I/Imax=1/1+IC50/[blocker]^h where I/Imax is the normalized current responses, IC50 defines the concentration at which inhibition is at its half-maximum, and h is the Hill coefficient.

N#Cc1c(C(F)(F)F)cc(O)n2c1nc1ccccc12 [1PBC]
IC50 (0 mV, 15 µM Ca2+): 11.2 µM | remaining activity at 3 µM (3 µM 1PBC, +80 mV, saturating Ca2+ (15 µM), read-out: I/Imax): 76.2% | remaining activity at 3 µM (3 µM 1PBC, -80 mV, saturating Ca2+ (15 µM), read-out: I/Imax): 86.2% | remaining activity at 10 µM (10 µM 1PBC, +80 mV, saturating Ca2+ (15 µM), read-out: I/Imax): 42.8% | remaining activity at 10 µM (10 µM 1PBC, -80 mV, saturating Ca2+ (15 µM), read-out: I/Imax): 67.5% | remaining activity at 30 µM (30 µM 1PBC, +80 mV, saturating Ca2+ (15 µM), read-out: I/Imax): 20.1% | remaining activity at 30 µM (30 µM 1PBC, -80 mV, saturating Ca2+ (15 µM), read-out: I/Imax): 43.8% | remaining activity at 100 µM (+80 mV, saturating Ca2+ (15 µM), read-out: I/Imax): 6.35% | remaining activity at 100 µM (-80 mV, saturating Ca2+ (15 µM), read-out: I/Imax): 18.7% | remaining activity at 3 µM (1PBC 3, 0 mV, read-out: fraction of unblocked current): 79.2% | remaining activity at 3 µM (1PBC 3, 20 mV, read-out: fraction of unblocked current): 77.2% | remaining activity at 3 µM (1PBC 3, 40 mV, read-out: fraction of unblocked current): 76.3% | remaining activity at 3 µM (1PBC 3, 60 mV, read-out: fraction of unblocked current): 75.5% | remaining activity at 3 µM (1PBC 3, 80 mV, read-out: fraction of unblocked current): 76.2% | remaining activity at 3 µM (1PBC 3, 100 mV, read-out: fraction of unblocked current): 78.6% | remaining activity at 3 µM (1PBC 3, 120 mV, read-out: fraction of unblocked current): 80.1% | remaining activity at 3 µM (1PBC 3, 140 mV, read-out: fraction of unblocked current): 83.1% | remaining activity at 3 µM (1PBC 3, -20 mV, read-out: fraction of unblocked current): 81.1% | remaining activity at 3 µM (1PBC 3, -40 mV, read-out: fraction of unblocked current): 83.5% | remaining activity at 3 µM (1PBC 3, -60 mV, read-out: fraction of unblocked current): 84.9% | remaining activity at 3 µM (1PBC 3, -80 mV, read-out: fraction of unblocked current): 86.2% | remaining activity at 3 µM (1PBC 3, -100 mV, read-out: fraction of unblocked current): 87.3% | remaining activity at 3 µM (1PBC 3, -120 mV, read-out: fraction of unblocked current): 88.4% | remaining activity at 3 µM (1PBC 3, -140 mV, read-out: fraction of unblocked current): 89.4% | remaining activity at 10 µM (1PBC 10, 0 mV, read-out: fraction of unblocked current): 52.5% | remaining activity at 10 µM (1PBC 10, 20 mV, read-out: fraction of unblocked current): 48.7% | remaining activity at 10 µM (1PBC 10, 40 mV, read-out: fraction of unblocked current): 45.6% | remaining activity at 10 µM (1PBC 10, 60 mV, read-out: fraction of unblocked current): 43.7% | remaining activity at 10 µM (1PBC 10, 80 mV, read-out: fraction of unblocked current): 42.8% | remaining activity at 10 µM (1PBC 10, 100 mV, read-out: fraction of unblocked current): 43.3% | remaining activity at 10 µM (1PBC 10, 120 mV, read-out: fraction of unblocked current): 44.7% | remaining activity at 10 µM (1PBC 10, 140 mV, read-out: fraction of unblocked current): 45.8% | remaining activity at 10 µM (1PBC 10, -20 mV, read-out: fraction of unblocked current): 56.4% | remaining activity at 10 µM (1PBC 10, -40 mV, read-out: fraction of unblocked current): 60.6% | remaining activity at 10 µM (1PBC 10, -60 mV, read-out: fraction of unblocked current): 64.3% | remaining activity at 10 µM (1PBC 10, -80 mV, read-out: fraction of unblocked current): 67.5% | remaining activity at 10 µM (1PBC 10, -100 mV, read-out: fraction of unblocked current): 70.7% | remaining activity at 10 µM (1PBC 10, -120 mV, read-out: fraction of unblocked current): 73.2% | remaining activity at 10 µM (1PBC 10, -140 mV, read-out: fraction of unblocked current): 75.5% | remaining activity at 30 µM (1PBC 30, 0 mV, read-out: fraction of unblocked current): 27.4% | remaining activity at 30 µM (1PBC 30, 20 mV, read-out: fraction of unblocked current): 23.9% | remaining activity at 30 µM (1PBC 30, 40 mV, read-out: fraction of unblocked current): 21.7% | remaining activity at 30 µM (1PBC 30, 60 mV, read-out: fraction of unblocked current): 20.8% | remaining activity at 30 µM (1PBC 30, 80 mV, read-out: fraction of unblocked current): 20.1% | remaining activity at 30 µM (1PBC 30, 100 mV, read-out: fraction of unblocked current): 20.1% | remaining activity at 30 µM (1PBC 30, 120 mV, read-out: fraction of unblocked current): 21.6% | remaining activity at 30 µM (1PBC 30, 140 mV, read-out: fraction of unblocked current): 22.4% | remaining activity at 30 µM (1PBC 30, -20 mV, read-out: fraction of unblocked current): 30.9% | remaining activity at 30 µM (1PBC 30, -40 mV, read-out: fraction of unblocked current): 34.9%
